{
  "source": "patent US5416118A",
  "about": "“Bicyclic amides as inhibitors of acyl-coenzyme A: cholesterol acyl transferase” (Schering Corporation, priority 1993, dated 1995)",
  "key": {"[1]": {"test_system": "ACAT", "assay": "ACAT Assay (in vitro)", "format": "biochemical", "conditions": "dose = 10 μM; rat liver microsomes", "description": "This assay measures the activity of ACAT by measuring the ACAT-mediated transfer of tritiated oleic acid from acyl-CoA to cholesterol to give labelled cholesterol oleate. Rat liver microsomes are used as the source of ACAT. Assays are performed in round bottom microtiterplates using a total incubation volume of 50 μL. Each incubation well receives 10 μL assay buffer (0.5M KHPO4, 10 μM dithiothreitol, pH 7.4), 7.5 μL of 40 mg/mL BSA (Bovine Serum Albumin) and 12.5 μg of microsomal protein. The test compound (in sufficient amount to bring the final concentration to from 0.1 to 25 μM), reference compound, or vehicle control is added and the final volume brought to 47 μL. The microtiterplate is then floated on the surface of a 37° C. water bath for fifteen minutes. Incubations are started by the addition of 3 μL ^3 H-acyl CoA (1 μCi/well, final concentration of 10 μM acyl CoA). The plate is then returned to the water bath for 15 minutes. The incubations are then terminated by application of 15 μL from each incubation to individual lanes on a thin layer plate (Silica Gel GF 20×20 cm). Standards are applied to several lanes so that the cholesterol ester band can be identified. After drying, the plates are eluted with 90:10:1 petroleum ether:ether:HOAc. The standards are visualized via iodine vapor, and the regions corresponding to cholesterol ester are scraped into 7 mL scintillation vials. 4 mL of scintillant are added to each vial, and the radioactivity quantified. Background count is determined by the boiled controls. Full activity is determined by activity in the presence of vehicle. The percent inhibition is calculated by subtracting the background from both control and test samples, and the test value is calculated as a percentage of the control. For IC50 determinations, the inhibition is plotted against drug doses on a log scale and the concentration at which 50% inhibition is obtained is determined.\n(§1) Using the assay methods described above, the compounds of Examples 1-9 were tested for in vitro ACAT inhibitory activity and for the ability to lower the level of cholesteryl esters in vivo."}, "[2]": {"test_system": "cholesteryl esters", "assay": "In Vivo Assay of Hypolipidemic Agents Using the Hyperlipidemic Hamster", "conditions": "Mesocricetus auratus, po, 168 h, oral gavage once daily, 7 days, versus control, read-out: % Reduction in cholesteryl esters; for change in vivo at 50 mg/kg: 50 mpk", "description": "In Vivo Assay of Hypolipidemic Agents Using the Hyperlipidemic Hamster\nHamsters are separated into groups of six and given a control cholesterol diet (Pudna Chow #5001 containing 0.5% cholesterol) for seven days. Diet consumption is monitored to determine dietary cholesterol exposure in the face of test compounds. The animals are dosed with the test compound once daily beginning with the initiation of diet. Dosing is by oral gavage of 0.2 mL of corn oil alone (control group) or solution (or suspension) of test compound in corn oil. All animals moribund or in poor physical condition are euthanized. After seven days, the animals are anesthetized by […] of ketamine and sacrificed by decapitation. Blood is collected into vacutainer tubes containing EDTA for plasma lipid analysis and the liver excised for tissue lipid analysis. Data is reported as percent reduction of lipid versus control.\nas §1"}},
  "data": [
    {"compound": "CCCCCCCC/C=C\\CCCCCCCC(=O)N[C@@H]1c2ccccc2CC[C@@H]1c1ccc(O)cc1", "note": "(relative stereo) [Example 4A]", "values": [
      {"measurement": "ACAT % Inhibition", "setting": "[1]", "value": 81, "unit": "%"},
      {"measurement": "change in vivo at 50 mg/kg", "setting": "[2]", "value": 0, "unit": "%"}
    ]},
    {"compound": "Nc1cccc([C@H]2Cc3ccccc3[C@H]2NC(=O)C(c2ccccc2)c2ccccc2)c1", "note": "(relative stereo) [Example 5A, cis-N-[2-(3'-aminophenyl)indanyl]-α-phenylbenzeneacetamide]", "values": [
      {"measurement": "ACAT % Inhibition", "setting": "[1]", "value": 95, "unit": "%"},
      {"measurement": "change in vivo at 10 mg/kg", "setting": "[2]; 10 mpk", "value": 0, "unit": "%"}
    ]},
    {"compound": "COc1ccc([C@H]2CCc3ccccc3[C@@H]2NC(=O)N(c2ccccc2)c2ccccc2)cc1", "note": "(relative stereo) [Example 6, trans-N'-[2-(4'-methoxyphenyl)-1,2,3,4-tetrahydronaphthalen-1-yl]-N,N-diphenylurea]", "values": [
      {"measurement": "ACAT % Inhibition", "setting": "[1]", "value": 97, "unit": "%"},
      {"measurement": "change in vivo at 50 mg/kg", "setting": "[2]", "value": -16, "unit": "%"}
    ]},
    {"compound": "O=C(N[C@@H]1c2ccccc2C[C@@H]1c1ccc(O)c(Cl)c1)C(c1ccccc1)c1ccccc1", "note": "(relative stereo) [Example 8, cis-N-[2-(3'-chloro-4'-hydroxyphenyl)indanyl]-α-phenylbenzeneacetamid]", "values": [
      {"measurement": "ACAT % Inhibition", "setting": "[1]", "value": 99, "unit": "%"},
      {"measurement": "change in vivo at 50 mg/kg", "setting": "[2]", "value": -40, "unit": "%"}
    ]},
    {"compound": "O=C(N[C@@H]1c2ccccc2C[C@@H]1c1cc(Cl)c(O)c(Cl)c1)C(c1ccccc1)c1ccccc1", "note": "(relative stereo) [Example 8A, cis-N-[2-(3',5'-dichloro-4'-hydroxyphenyl)indanyl]-α-phenylbenzeneacetamide]", "values": [
      {"measurement": "ACAT % Inhibition", "setting": "[1]", "value": 99, "unit": "%"},
      {"measurement": "change in vivo at 50 mg/kg", "setting": "[2]", "value": -14, "unit": "%"}
    ]},
    {"compound": "O=C(N[C@@H]1c2ccccc2C[C@@H]1c1ccc(O)c(Br)c1)C(c1ccccc1)c1ccccc1", "note": "(single isomer, unassigned) [Example 7, (+)-cis-N-[2-(3'-bromo-4'-hydroxyphenyl]indanyl]-α-phenylbenzeneacetamide]", "values": [
      {"measurement": "ACAT % Inhibition", "setting": "[1]", "value": 100, "unit": "%"},
      {"measurement": "change in vivo at 50 mg/kg", "setting": "[2]", "value": -40, "unit": "%"}
    ]},
    {"compound": "Cc1cc([C@H]2Cc3ccccc3[C@H]2NC(=O)C(c2ccccc2)c2ccccc2)ccc1O", "note": "(single isomer, unassigned) [Example 9, (+)-cis-N-[2-(4'-hydroxy-3'-methylphenyl)indanyl]-α-phenylbenzeneacetamide]", "values": [
      {"measurement": "ACAT % Inhibition", "setting": "[1]", "value": 98, "unit": "%"},
      {"measurement": "change in vivo at 50 mg/kg", "setting": "[2]", "value": -66, "unit": "%"}
    ]},
    {"compound": "Cc1cc([C@H]2Cc3ccccc3[C@H]2NC(=O)C(c2ccccc2)c2ccccc2)cc(C)c1O", "note": "(single isomer, unassigned) [Example 9A, (+)-cis-N-[2-(3',5'-dimethyl-4'-hydroxyphenyl)indanyl]-α-phenylbenzeneacetamide]", "values": [
      {"measurement": "ACAT % Inhibition", "setting": "[1]", "value": 97, "unit": "%"},
      {"measurement": "change in vivo at 50 mg/kg", "setting": "[2]", "value": -60, "unit": "%"}
    ]}
  ]
}
